Assay results as given in BindingDB's records for doi:10.3109/14756366.2011.614607 (Ondokuz Mayis University, 2012).

Key:
Experiment in all cases: CA Activity Assay
Conditions in all cases: pH 7.4; 25 °C
Carbonic anhydrase 1 = Carbonic anhydrase 1 (Homo sapiens, UniProt P00915)
Protocol: (§1) The enzymatic reaction, in a total volume of 3.0 mL, contained 1.4 mL 0.05M Tris-SO4 buffer (pH 7.4), 1mL 3 mM 4-nitrophenylacetate, 0.5 mL H2O and 0.1mL enzyme solution. A reference measurement was obtained by preparing the same cuvette without enzyme solution. The inhibitory effects of the sulphonamide derivatives were examined. All compounds were tested in triplicate at each concentration used. Different concentrations of the compounds were used.

Carbonic anhydrase 6 = Carbonic anhydrase 6 (Homo sapiens, UniProt P23280)
Protocol: as §1

Carbonic anhydrase 2 = Carbonic anhydrase 2 (Homo sapiens, UniProt P00918)
Protocol: as §1

Chain of Carbonic anhydrase 1 (P00915 whole entry): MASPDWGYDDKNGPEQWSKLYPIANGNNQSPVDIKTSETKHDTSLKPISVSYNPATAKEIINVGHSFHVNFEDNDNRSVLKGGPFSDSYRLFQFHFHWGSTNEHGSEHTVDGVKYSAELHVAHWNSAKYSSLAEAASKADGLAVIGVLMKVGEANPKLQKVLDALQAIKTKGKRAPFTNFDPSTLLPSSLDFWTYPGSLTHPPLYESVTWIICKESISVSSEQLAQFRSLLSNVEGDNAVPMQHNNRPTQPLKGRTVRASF
Chain of Carbonic anhydrase 6 (P23280 whole entry): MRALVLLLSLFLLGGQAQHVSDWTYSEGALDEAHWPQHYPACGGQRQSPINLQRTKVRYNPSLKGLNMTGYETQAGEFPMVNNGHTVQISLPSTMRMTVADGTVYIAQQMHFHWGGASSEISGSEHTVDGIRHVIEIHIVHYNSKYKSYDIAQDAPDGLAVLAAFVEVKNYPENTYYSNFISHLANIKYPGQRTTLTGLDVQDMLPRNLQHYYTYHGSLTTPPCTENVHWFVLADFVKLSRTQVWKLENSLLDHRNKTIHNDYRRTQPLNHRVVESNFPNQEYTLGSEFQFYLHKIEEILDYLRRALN

Structure (SMILES)	Ki (Carbonic anhydrase 1) [µM]	Ki (Carbonic anhydrase 6) [µM]	Ki (Carbonic anhydrase 2) [µM]
Cc1ccc(S(N)(=O)=O)cc1	118	21.2	
NS(=O)(=O)c1ccccc1		4.11	
Nc1ccc(S(N)(=O)=O)cc1 [aromatic sulfonamide compound 5]		1.21	

The next lines start with the values.

Ki (Carbonic anhydrase 1) [µM]	Ki (Carbonic anhydrase 6) [µM]	Ki (Carbonic anhydrase 2) [µM]	Structure (SMILES)
	1.01		NCc1ccc(S(N)(=O)=O)cc1 [aromatic sulfonamide compound 6]
13.7	0.943	0.228	CCOC1Oc2ccccc2C(=O)/C1=C\Nc1ccc(S(N)(=O)=O)cc1 (centres undefined) [hCA inhibitor, 1]
48.1	2.24	1.13	CCOC1Oc2c(Br)cccc2C(=O)/C1=C\Nc1ccc(S(N)(=O)=O)cc1 (centres undefined) [hCA inhibitor, 3]
71.2	4.28	1.86	CCOC1Oc2c(Br)cc(Br)cc2C(=O)/C1=C\Nc1ccc(S(N)(=O)=O)cc1 (centres undefined) [hCA inhibitor, 4]
